In ChEMBL document CHEMBL1201862, “PubChem BioAssay data set” (2004):
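Dose response: 5 concentrations. Exposure: 48 h. Format: 96-well plates. Endpoint: linear interpolation; highest concentration if not reached. Abbreviation: GI50, concentration required for 50% inhibition of growth.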 Active and inactive are the calls of the source. Cut-off read from the data, not from the text of the source: active = GI50 up to about 1.1 µM and inactive = higher.

Columns and labels:
Experiment in all cases: NCI-60 cell line screen, 48 h
SN12C = system: SN12C
TK-10 = system: TK-10
HOP-62 = system: HOP-62
NCI-H23 = system: NCI-H23
OVCAR-5 = system: OVCAR-5
SK-OV-3 = system: SK-OV-3
UACC-62 = system: UACC-62
SW-620 = system: SW-620
OVCAR-3 = system: OVCAR-3
MOLT-4 = system: MOLT-4
HOP-18 = system: HOP-18
OVCAR-8 = system: OVCAR-8
HOP-92 = system: HOP-92
NCI-H522 = system: NCI-H522
SK-MEL-5 = system: SK-MEL-5
NCI/ADR-RES = system: NCI/ADR-RES
DU-145 = system: DU-145
RXF 393 = system: RXF 393
MDA-MB-231 = system: MDA-MB-231
MDA-MB-435 = system: MDA-MB-435

Row | SMILES | GI50 (SN12C) | GI50 (TK-10) | GI50 (HOP-62) | GI50 (NCI-H23) | GI50 (OVCAR-5) | GI50 (SK-OV-3) | GI50 (UACC-62) | GI50 (SW-620) | GI50 (OVCAR-3) | GI50 (MOLT-4) | GI50 (HOP-18) | GI50 (OVCAR-8) | GI50 (HOP-92) | GI50 (NCI-H522) | GI50 (SK-MEL-5) | GI50 (NCI/ADR-RES) | GI50 (DU-145) | GI50 (RXF 393) | GI50 (MDA-MB-231) | GI50 (MDA-MB-435)
1 | COC(=O)C1CC/C(=N\c2cccc(C(F)(F)F)c2)N1 (stereo unspecified) | > 100 µM (inactive) | > 100 µM (inactive) | > 100 µM (inactive) | > 100 µM (inactive) | > 100 µM (inactive) | > 100 µM (inactive) | > 100 µM (inactive) | > 100 µM (inactive) | > 100 µM (inactive) | > 100 µM (inactive) | > 100 µM (inactive) | > 100 µM (inactive) | > 100 µM (inactive) | > 100 µM (inactive) | – | – | – | – | – | –
2 | CCOC(=O)/C(=C/c1ccc(C(F)(F)F)cc1)N(CC)CC | 53.3 µM (inactive) | > 100 µM (inactive) | 42.6 µM (inactive) | 37.3 µM (inactive) | 87.1 µM (inactive) | 66.4 µM (inactive) | 35.4 µM (inactive) | 84.1 µM (inactive) | – | 96.4 µM (inactive) | 12.5 µM (inactive) | 56 µM (inactive) | 17.5 µM (inactive) | 31.6 µM (inactive) | 32.7 µM (inactive) | – | – | – | – | –
3 | COC(=O)c1ccc(NCc2cc(O)ccc2O)cc1O | 8.38 µM (inactive) | 16.7 µM (inactive) | 10.9 µM (inactive) | 9.46 µM (inactive) | 16.7 µM (inactive) | 13.9 µM (inactive) | 13.1 µM (inactive) | 6.55 µM (inactive) | 3.6 µM (inactive) | 2.09 µM (inactive) | – | 3.29 µM (inactive) | 11.2 µM (inactive) | 0.405 µM (active) | 12.6 µM (inactive) | 1.85 µM (inactive) | 12.3 µM (inactive) | 7.28 µM (inactive) | 11 µM (inactive) | 11.1 µM (inactive)
4 | O=C(O)C1Cc2[nH]cnc2CN1 (stereo unspecified) | > 100 µM (inactive) | > 100 µM (inactive) | – | > 100 µM (inactive) | > 100 µM (inactive) | > 100 µM (inactive) | > 100 µM (inactive) | > 100 µM (inactive) | > 100 µM (inactive) | > 100 µM (inactive) | > 100 µM (inactive) | > 100 µM (inactive) | > 100 µM (inactive) | > 100 µM (inactive) | > 100 µM (inactive) | – | – | – | – | –
